Data as given in ChEMBL document CHEMBL1134833, “Convergent synthesis of potent peptide inhibitors of the Grb2-SH2 domain by palladium catalyzed coupling of a terminal alkyne” (Bioorg Med Chem Lett, 2001).
pIC50: −log10 of the molar value.

Each compound was assayed against Growth factor receptor-bound protein 2 (Homo sapiens, UniProt P62993) (assay: Inhibitory concentration required against Src homology (SH2) domain of Growth factor receptor bound protein 2 by ELISA binding assay).
Growth factor receptor-bound protein 2, sequence (P62993 whole entry): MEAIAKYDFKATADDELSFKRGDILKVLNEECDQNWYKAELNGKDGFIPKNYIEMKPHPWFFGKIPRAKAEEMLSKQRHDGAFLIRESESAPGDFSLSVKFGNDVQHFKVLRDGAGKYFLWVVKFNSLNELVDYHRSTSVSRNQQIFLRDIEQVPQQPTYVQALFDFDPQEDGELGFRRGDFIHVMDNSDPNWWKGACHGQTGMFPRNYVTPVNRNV

| Compound | pIC50 |
| --- | --- |
| CC(=O)N[C@@H](Cc1ccc(CP(=O)(O)O)cc1)C(=O)NC1(C(=O)N[C@@H](CC(N)=O)C(=O)NCCCc2cccc3cc(O)ccc23)CCCCC1 | 7.37 |
| COc1ccc2c(CCCNC(=O)[C@H](CC(N)=O)NC(=O)C3(NC(=O)[C@H](Cc4ccc(CP(=O)(O)O)cc4)NC(C)=O)CCCCC3)cccc2c1 | 6.89 |
| CC(=O)N[C@@H](Cc1ccc(CP(=O)(O)O)cc1)C(=O)NC1(C(=O)N[C@@H](CC(N)=O)C(=O)NCCCc2cccc3ccc(O)cc23)CCCCC1 | 7.61 |
| CC(=O)N[C@@H](Cc1ccc(CP(=O)(O)O)cc1)C(=O)NC1(C(=O)N[C@@H](CC(N)=O)C(=O)NCCCc2ccc3cccc(O)c3c2)CCCCC1 | 7.95 |
| COc1cc2cccc(CCCNC(=O)[C@H](CC(N)=O)NC(=O)C3(NC(=O)[C@H](Cc4ccc(CP(=O)(O)O)cc4)NC(C)=O)CCCCC3)c2cc1OC | 7.07 |
| CC(=O)N[C@@H](Cc1ccc(CP(=O)(O)O)cc1)C(=O)NC1(C(=O)N[C@@H](CC(N)=O)C(=O)NCCCc2c(O)ccc3ccccc23)CCCCC1 [CGP-78850] | 7.37 |
| CC(=O)N[C@@H](Cc1ccc(CP(=O)(O)O)cc1)C(=O)NC1(C(=O)N[C@@H](CC(N)=O)C(=O)NCCCc2cccc3ccccc23)CCCCC1 | 7.37 |
